Assay results from patent US20160068902A1, “SEQUENCING NUCLEIC ACIDS BY ENZYME ACTIVATION” (CAERUS MOLECULAR DIAGNOSTICS, priority 2013, published 2016).

System: maltose binding protein/lactamase enzyme (switch enzyme)
Assay: Lactamase switch enzyme activity monitored with chromogenic substrate nitrocefin
Assay type: biochemical
Conditions: for activation of the switch protein: without dephosphorylation; for activation of the switch protein / activation of the switch protein after dephosphorylation: FIG. 4E; for activation of the switch protein after dephosphorylation: dephosphorylated with shrimp alkaline phosphatase
Source text: A maltose with the 1′ hydroxyl attached to the terminal phosphate of a dNTP should not bind effectively to the switch and so should not activate the maltose binding protein/lactamase enzyme^12. The conjugated maltose/dNTP can be used to detect incorporation of dNTP during a cycle of sequencing by synthesis: the enzyme is only activated after incorporation of a dNTP released phospho-maltose which is then be dephosphorylated to yield the maltose activator. […] Maltose monohydrate (1.44 g) was dissolved in 1 ml of water titrated to pH 12.5 by addition of NaOH and heated to 80° C. Trisodium trimetaphosphate (0.31 g) was added and the mixture reacted at room temperature for 25 hours. The maltose-triphosphate product was purified by anion exchange chromatography on a Dowex 1-X2 resin and eluted with 300 mM KCl.
The switch protein was expressed and purified as previously described^21 and enzyme activity was monitored using the chromogenic substrate nitrocefin. […] Addition of maltose increased the enzyme activity more than 210-fold.

Row | Compound | increase of enzyme activity on addition of maltose (10 nM switch enzyme, nitrocefin hydrolysis, FIG. 4A) | Lactamase switch hydrolyses nitrocefin faster after maltose addition (FIG. 4(A) legend) [times] | activation of the switch protein | activation of the switch protein after dephosphorylation | activation of the switch protein after dephosphorylation (listed as Maltose triphosphate)
1 | OC[C@H]1O[C@H](O[C@H]2[C@H](O)[C@@H](O)C(O)O[C@@H]2CO)[C@H](O)[C@@H](O)[C@@H]1O (mixture of isomers) [maltose] | more than 210 fold | 210 | activates the protein |  | 
2 | maltose triphosphate |  |  | no appreciable activation | activation levels similar to that of maltose | significant activation of the lactamase switch only upon dephosphorylation
